According to patent publication US11680086B2, “Lipopeptide for potently inhibiting HIV, derivative thereof, pharmaceutical composition thereof and use thereof” (Institute of Pathogen Biology, Chinese Academy of Medical …, priority 2017, dated 2023):
Peptide text beside a SMILES is read from it. * marks the point of attachment. Palmitoyl = CCCCCCCCCCCCCCCC(=O)*

Assays:
[1] = test system: HXB2-mediated cell fusion (HL2/3 effector cells, TZM-b1 target cells); assay type: cell-based, HIV-1
Method: HIV-1 mediated cell fusion inhibition assay: the effector cells (HL2/3 cells) and target cells (TZM-b1 cells) were provided by the AIDS Reagent Program of National Institutes of Health (NIH) (catalog numbers: 1294 and 8129, respectively). The both cells were adherent cells and were cultured in a DMEM cell culture medium containing ampicillin/streptomycin double antibiotics and 10% fetal bovine serum (FBS). The TZM-b1 was first added to a 96-well cell culture plate (1×10^4 cells/well), and cultured overnight at 37° C. and 5% CO2. The test substance was diluted with the DMEM cell culture medium by 3 folds and mixed with HL2/3 effector cells (3×10^4 cells/well), then added to the TZM-b1 target cells, and further cultured for 6 hours to fully fuse. The activity of luciferase (relative fluorescence units, RLU) was then determined using a luciferase reporter gene kit from Promega company according to the instructions. The inhibition rate of each sample at each concentration was calculated, and the half effective inhibitory concentration (IC50 value) was calculated using GraphPad Prism Software 2.01.

[2] = test system: HIV-1 strain NL4-3 pseudovirus (D36G mutant); assay type: cell-based
Method: (§1) The supernatant was discarded from the wells. […] Inhibition rate (%) and IC50 value were calculated.

[3] = test system: HIV-1 strain JRCSF; assay type: cell-based
Method: (§2) Inhibition rate (%) and IC50 value were calculated.

[4] = test system: 35 HIV-1 pseudoviruses (subtypes A, B, B', C, G, A/C, A/E, B/C); details: for IC50: read-out: average IC50 for inhibition of various types of HIV-1 pseudoviruses, average over 35 pseudoviruses; for inhibitory activity against different subtypes of HIV-1 as folds of T-20: relative to T-20, from average IC50
Description: HIV-1 pseudovirus-mediated cell entry inhibition assay: basic steps included: (1) Preparation of HIV-1 pseudovirus: the 293T cells were co-transfected with a plasmid expressing the envelope protein (Env) of HIV-1 strain NL4-3 (i.e., a recombinant expression plasmid obtained by inserting the gene encoding the envelope protein (ENV) of the D36G mutant of the HIV-1 strain NL4-3 in the Table 2 of the Reference 14 listed in the Background Art into the vector pcDNA3.1(−)) and the HIV-1 backbone plasmid pSG3Δenv (provided by the AIDS Reagent Program of National Institutes of Health (NIH), catalog number: 11051) by using a cell transfection reagent, incubated in a cell incubator of 37° C. and 5% CO2 for 6 hours, and then the medium was changed, and the cells were further incubated for 48 hours. The cell culture supernatant containing pseudovirus particles was pipetted and filtered with a 0.45 μm filter to collect the supernatant, then 20% fetal bovine serum (FBS) was added thereto, the final solution was transferred to a polypropylene tube, and stored at −80° C. for ready for use or directly subjected to virus titration. (2) Titration of HIV-1 pseudovirus: the viruses were diluted by 5 folds in a 96-well plate, and 4 replicate wells with 8 gradients were set to a final volume of 100 microliters. The TZM-b1 cells were trypsinized and counted, and the cells were diluted to 1×10^5 cells/ml with DMEM complete medium; 100 μl of cells dilution (containing 15 μg/ml DEAE-dextran) per well were added and cultured at 37° C. and 5% CO2 for 48 hours. The 96-well plate was then taken from the cell culture incubator. The supernatant was discarded from the wells. To each well, 30 μl of a cell lysate was added, and after 10 minutes, 100 μl of a luciferase detection reagent was added. 100 μl of liquid was pipetted from each well and added to a corresponding 96-well white plate, and the luminescence values were read by a microplate photometer. The virus titer was calculated by the Reed-Muench method. (3) Antiviral activity assay: the test substance was dissolved in DMSO and diluted with a cell culture solution by 3 folds, and placed in a 96-well plate at a final volume of […]. 50 μl of a DMEM medium was used in place of the test substance as a negative control. To each well, 100 μl of TZM-b1 target cells solution (containing 15 μg/ml DEAE-dextran) at a concentration of 1×10^5 cells/ml was added, and then 50 μl (corresponding to 100 TCID50 per well) of the HIV-1 pseudovirus obtained above was added. After incubation at 37° C. and 5% CO2 for 48 hours, the relative light units (RLU) of each well were determined by using a luciferase detection reagent (Promega). Inhibition rate (%) and IC50 value were calculated.
Among them, the A, B and C subtypes were the main viruses causing AIDS epidemic in the world, while B/C and A/E recombinant viruses were the main viruses in China. […] Among the Env expression plasmids used for the preparation of pseudoviral, except that the Env expression plasmids used for preparation of PVO, Du156 and CAP 210.2.00.E8 were obtained from the AIDS Reagent Program of NIH in the United states, other plasmids were preserved by the laboratory of Prof. He Yuxian, Institute of Pathogen Biology, Chinese Academy of Medical Sciences, please see the References 13, 14 and 18 listed in the Background Art and articles of Chong et al. (Chong H, Yao X, Zhang C, Cai L, Cui S, Wang Y, He Y. Biophysical property and broad anti-HIV activity of Albuvirtide, a 3-maleimimidoproprotionic acid-modified peptide fusion inhibitor. PLoS One, 2012; 7 (3): e 32599). The preparation of the pseudovirus and the antiviral assay were the same as those in Example 2.1 of Example 2 (HIV-1 pseudovirus-mediated cell entry inhibition assay).

[5] = test system: NL4-3 pseudovirus carrying T-20 resistance mutation site of NHR; assay: inhibition of T-20 resistant strains; assay type: cell-based, HIV-1; details: strains with single or double mutations
[6] = test system: HIV-2 strain ROD (infectious); assay: inhibition of HIV-2; assay type: cell-based; details: HIV-2 ROD
Method: as §2
(§3) In order to further reflect the antiviral advantages of the potent lipopeptides of the present invention, their inhibitory activity against HIV-2 and SIV was determined in the example. The methods of antiviral activity assays used were described in the literatures published by the present inventors (see the References 13 and 30 listed in the Background Art). The molecular cloning plasmid pROD of the HIV-2 strain ROD (HIV-2ROD) was kindly provided by Professor Nuno Taveira from the University of Lisbon, Portugal, and the plasmids expressing the SIV strain SIVpbj (SIVPBJ) and SIV239 envelope proteins (pSIVpbj-Env and pSIV239, respectively) were kindly provided by Professor Xu Jianqing from the Fudan University. The preparation of the infectious ROD was the same as that of the infectious JRCSF in the above section 2.1, and the pseudoviruses SIVpbj and SIV239 were prepared by a method same as that described in the above Examples 2 and 3.

[7] = test system: SIV pseudoviruses SIVpbj and SIV239; assay: inhibition of SIV pseudoviruses; assay type: cell-based
Method: as §1, §3

[8] = target: N39 (NHR-derived polypeptide of gp41) (Human immunodeficiency virus type 1 group M subtype B, UniProt P04578); assay type: binding, HIV-1; details: 10 μM each, PBS pH 7.2
Chain of N39 (NHR-derived polypeptide of gp41) (P04578 528-566): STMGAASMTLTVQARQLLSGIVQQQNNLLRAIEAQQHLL
Method: (§4) The circular dichroism spectrophotometer was Jasco-815 by JASCO Inc., and the assay method was referred to the papers published by the inventors (see the References 18 and 30 listed in the Background Art). […] The N39 and an inhibitor were separately dissolved in a phosphate buffered saline (PBS) to prepare a PBS solution (pH 7.2) of a concentration of 20 μM. The N39 was mixed with an inhibitor at a volume ratio of 1:1 (final concentration of 10 μM for each), the mixed sample was placed at 37° C. for 30 minutes to fully react, and then the helix content and Tm value of the resultant complex were measured by the circular dichroism spectrophotometer. The scan wavelength range of the device was 195-260 nm with a wavelength interval of 1 nm, and the values measured by scanning for three times were averaged. Based on the CD signals, the interaction between the polypeptides and the helix content were determined. Then, the sample for CD signal measurement was transferred to the temperature scanning sample cell, the program of the CD device was set to temperature scanning with a detection wavelength of 220 nm and scanning range of 20-98° C., and the program scan was performed to obtain the curve of the CD signals vs temperature, based on which the Tm value was calculated. Based on the Tm value, the stability of the formed helical structure of the inhibitor and N39 was judged.

[9] = circular dichroism secondary structure analysis of the inhibitors themselves; assay type: physicochemical; details: 20 μM and 40 μM in PBS
Method: as §4
For easy analysis, the α-helix content and the Tm value of the inhibitors were measured at concentrations of 10 μM, 20 μM, and 40 μM (PBS solution), respectively.

| Structure (SMILES) | inhibitory activity against HXB2-cell fusion (in words) ([1]; compared with template LP-52) | decrease of inhibitory activity against NL4-3 infection ([2]; compared with template LP-52) | decrease of inhibitory activity against JRCSF infection ([3]; compared with template LP-52) | IC50 [4] | inhibitory activity against different subtypes of HIV-1 as folds of T-20 [4] | inhibitory activity against T-20 resistant strains (in words) [5] | inhibitory activity against HIV-2 (in words) [6] | inhibitory activity against SIV (in words) [7] | Tm value of the complex with N39 [8] | helix content of the complex with N39 [8] | inhibitory activity as folds of that of T-20 ([1]; HXB2-mediated cell fusion, relative to T-20) | inhibitory activity as folds of that of T-20 ([2]; NL4-3 pseudovirus entry, relative to T-20) | inhibitory activity as folds of that of T-20 ([3]; JRCSF replication, relative to T-20) | secondary structure of the inhibitor itself (in words) [9] |
| --- | --- | --- | --- | --- | --- | --- | --- | --- | --- | --- | --- | --- | --- | --- |
| CCCCCCCCCCCCCCCC(=O)NCCCC[C@H](NC(=O)[C@H](CCCCN)NC(=O)[C@H](CC(C)C)NC(=O)[C@H](CCC(=O)O)NC(=O)[C@H](CCC(=O)O)NC(=O)[C@H](CCC(=O)O)NC(=O)[C@H](CC(N)=O)NC(=O)[C@H](CCCCN)NC(=O)[C@H](CCCCN)NC(=O)[C@H](CCC(N)=O)NC(=O)[C@H](CCC(N)=O)NC(=O)[C@H](CCC(=O)O)NC(=O)[C@H](CCC(=O)O)NC(=O)[C@H](C)NC(=O)[C@H](CCCCN)NC(=O)[C@H](CCCCN)NC(=O)[C@H](CC(C)C)NC(=O)[C@H](CC(C)C)NC(=O)[C@H](CCC(=O)O)NC(=O)[C@H](CCC(=O)O)NC(=O)[C@@H](NC(=O)[C@H](CCCCN)NC(=O)[C@H](CCC(N)=O)NC(=O)[C@H](CCC(=O)O)NC(=O)[C@H](Cc1c[nH]c2ccccc12)NC(C)=O)[C@@H](C)CC)C(N)=O [LP-55] (Ac-WEQKIEELLKKAEEQQKKNEEELKK(Palmitoyl)-NH2) | essentially unchanged | about 2 fold | about 2 fold | 0.034 nM | 1218 folds | much lower active against T-20 resistant mutant strains than the LP-52 and LP-80 | significantly affected the activity | significantly affected the activity | 63.1 °C |  |  |  |  |  |
| CCCCCCCCCCCCCCCC(=O)NCCCC[C@H](NC(=O)[C@H](CCC(=O)O)NC(=O)[C@H](CC(C)C)NC(=O)[C@H](CCCCN)NC(=O)[C@H](CCCCN)NC(=O)[C@H](CC(C)C)NC(=O)[C@H](CCC(=O)O)NC(=O)[C@H](CCC(=O)O)NC(=O)[C@H](CCC(=O)O)NC(=O)[C@H](CC(N)=O)NC(=O)[C@H](CCCCN)NC(=O)[C@H](CCCCN)NC(=O)[C@H](CCC(N)=O)NC(=O)[C@H](CCC(N)=O)NC(=O)[C@H](CCC(=O)O)NC(=O)[C@H](CCC(=O)O)NC(=O)[C@H](C)NC(=O)[C@H](CCCCN)NC(=O)[C@H](CCCCN)NC(=O)[C@H](CC(C)C)NC(=O)[C@H](CC(C)C)NC(=O)[C@H](CCC(=O)O)NC(=O)[C@H](CCC(=O)O)NC(=O)[C@@H](NC(C)=O)[C@@H](C)CC)C(N)=O [LP-65] (Ac-IEELLKKAEEQQKKNEEELKKLEK(Palmitoyl)-NH2) |  |  |  | 0.052 nM | 796 folds | much lower active against T-20 resistant mutant strains than the LP-52 and LP-80 | extremely potent inhibitory activity | extremely potent inhibitory activity | 72.1 °C | 63% |  |  |  |  |
| CCCCCCCCCCCCCCCC(=O)NCCCC[C@H](NC(=O)[C@H](CC(=O)O)NC(=O)[C@H](CC(C)C)NC(=O)[C@H](CCC(=O)O)NC(=O)[C@H](CC(C)C)NC(=O)[C@H](CC(C)C)NC(=O)[C@H](CCC(=O)O)NC(=O)[C@H](CCC(N)=O)NC(=O)[C@H](CCC(=O)O)NC(=O)[C@H](CC(N)=O)NC(=O)[C@H](CCCCN)NC(=O)[C@H](CCC(=O)O)NC(=O)[C@H](CCC(N)=O)NC(=O)[C@H](CCC(N)=O)NC(=O)[C@H](CC(N)=O)NC(=O)[C@H](CCC(N)=O)NC(=O)[C@H](CO)NC(=O)[C@H](CCC(=O)O)NC(=O)[C@H](CCC(=O)O)NC(=O)[C@@H](NC(=O)[C@H](CC(C)C)NC(=O)[C@H](CO)NC(=O)[C@H](Cc1c[nH]cn1)NC(=O)[C@@H](NC(=O)[C@H](CC(C)C)NC(=O)[C@H](CO)NC(=O)[C@@H](NC(=O)[C@H](Cc1ccc(O)cc1)NC(C)=O)[C@@H](C)O)[C@@H](C)CC)[C@@H](C)CC)C(N)=O [LP-40] (Ac-YTSLIHSLIEESQNQQEKNEQELLELDK(Palmitoyl)-NH2) |  |  |  | 6.37 nM | 7 folds | had been improved | only slightly improved | only slightly improved | 51.3 °C | 57.7% | about 59 folds | ~21 folds | ~18 folds | small amount of helical structure |
